From patent US6303630A, “Diarylsulfone non-nucleoside reverse transcriptase inhibitors of human immunodeficiency virus” (University of the Sciences in Philadelphia, priority 2000, dated 2001)
pEC50, pIC50: −log10 of the molar value. Read-outs that look alike come from different tables or passages of the source.

Tests used:
HIV-1 = assay: NCI in vitro anti-HIV drug screen: XTT-formazan assay, protection of T4 lymphocytes (CEM) from HIV-1 cytopathic effects; format: cell-based, human immunodeficiency virus (HIV-1); details: for pEC50: 144 h, HIV-1 infected CEM cells, 6 days, XTT, approximate values, read-out: EC50 (50% effective concentration against HIV cytopathic effects); for inhibition at 200 µM / activity at 200 µM: dose 2.00 × 10^-4 Molar; for inhibition at 2 µM / activity at 2 µM: dose 2.00 × 10^-6 Molar; for inhibition at 0.2 µM / activity at 0.2 µM: dose 2.00 × 10^-7 Molar; for TI50 (IC/EC), Therapeutic Index: IC50/EC50
Summary of the method: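 CEM T4 lymphocytes with serial half-log10 compound dilutions were infected with HIV-1 and incubated 6 days at 37° in 5% CO2. Cell protection from cytolysis was quantified by XTT formazan absorbance, with microscopic confirmation, against uninfected drug-treated toxicity controls.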

[1] = test system: T4 lymphocytes (CEM cell line); assay: Cell growth / toxicity control in uninfected T4 lymphocytes (CEM), XTT-formazan; format: cell-based; details: Homo sapiens, CCRF-CEM; for pIC50: 144 h, approximate values; for activity at 200 µM: dose 2.00 × 10^-4 Molar; for activity at 20 µM: dose 2.00 × 10^-5 Molar; for activity at 2 µM: dose 2.00 × 10^-6 Molar; for activity at 0.2 µM: dose 2.00 × 10^-7 Molar; for activity at 6.33 µM: dose 6.33 × 10^-6 Molar; for activity at 0.634 µM: dose 6.34 × 10^-7 Molar; for activity at 0.0635 µM: dose 6.35 × 10^-8 Molar
Summary of the method: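 Uninfected CEM T4 lymphocytes received compound in half-log10 dilutions (1:200 final dilution of DMSO solution) as toxicity control alongside HIV-1-infected cultures. After 6 days at 37° in 5% CO2, viability was quantified by XTT formazan absorbance plus microscopy.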

[2] = Human immunodeficiency virus 1, CCRF-CEM
[3] = Human immunodeficiency virus 1, CCRF-CEM, read-out: Percent of Protection
[4] = Human immunodeficiency virus 1, CCRF-CEM, dose 2.00 × 10^-5 Molar, read-out: Percent of Protection
[5] = Human immunodeficiency virus 1, Lymphocyte, read-out: Percent of Control, Infected
[6] = Human immunodeficiency virus 1, Lymphocyte, dose 2.00 × 10^-5 Molar, read-out: Percent of Control, Infected
[7] = Human immunodeficiency virus 1, Lymphocyte, dose 6.33 × 10^-6 Molar, read-out: Percent of Control, Infected
[8] = Human immunodeficiency virus 1, Lymphocyte, dose 6.34 × 10^-7 Molar, read-out: Percent of Control, Infected
[9] = Human immunodeficiency virus 1, Lymphocyte, dose 6.35 × 10^-8 Molar, read-out: Percent of Control, Infected
[10] = read-out: Percent of Control, Uninfected
[11] = read-out: IC50 (50% inhibitory concentration for cell growth), uninfected CEM cells, 6 days, XTT

| SMILES | pEC50 (HIV-1; [2]) | inhibition at 200 µM (HIV-1; [3]) | inhibition at 20 µM (HIV-1; [4]) | inhibition at 2 µM (HIV-1; [3]) | inhibition at 0.2 µM (HIV-1; [3]) | activity at 200 µM (HIV-1; [5]) | activity at 20 µM (HIV-1; [6]) | activity at 2 µM (HIV-1; [5]) | activity at 0.2 µM (HIV-1; [5]) | activity at 6.33 µM (HIV-1; [7]) | activity at 0.634 µM (HIV-1; [8]) | activity at 0.0635 µM (HIV-1; [9]) | TI50 (IC/EC), Therapeutic Index (HIV-1) | activity at 200 µM [1, 10] | activity at 20 µM [1, 10] | activity at 2 µM [1, 10] | activity at 0.2 µM [1, 10] | activity at 6.33 µM [1, 10] | activity at 0.634 µM [1, 10] | activity at 0.0635 µM [1, 10] | also measured |
| --- | --- | --- | --- | --- | --- | --- | --- | --- | --- | --- | --- | --- | --- | --- | --- | --- | --- | --- | --- | --- | --- |
| CNc1ccc(Cl)cc1S(=O)(=O)c1ccccc1 [Compound 57, 2-phenylsulfonyl-4-chloro-N-methylaniline] | 5.01 | 22% | 94% | 2.94% | 0.57% | 27.5% | 94.4% | 9.73% | 7.53% | 28.3% | 5.9% | 5.77% | > 2.03 × 10^-1 | 75.9% | 87.2% | 91.5% | 92% | 89.6% | 86.4% | 91.9% | inhibition at 63.2 µM (HIV-1; Human immunodeficiency virus 1, CCRF-CEM, dose 6.32 × 10^-5 Molar, read-out: Percent of Protection): 91.9%; inhibition at 6.33 µM (HIV-1; Human immunodeficiency virus 1, CCRF-CEM, dose 6.33 × 10^-6 Molar, read-out: Percent of Protection): 22.9%; inhibition at 0.0635 µM (HIV-1; Human immunodeficiency virus 1, CCRF-CEM, dose 6.35 × 10^-8 Molar, read-out: Percent of Protection): -1.32%; inhibition at 0.634 µM (HIV-1; Human immunodeficiency virus 1, CCRF-CEM, read-out: Percent of Protection, dose 6.34 × 10^-7 Molar): -1.18%; activity at 63.2 µM (HIV-1; Human immunodeficiency virus 1, Lymphocyte, dose 6.32 × 10^-5 Molar, read-out: Percent of Control, Infected): 92.5%; pIC50 ([1]; uninfected CEM cells, 6 days, XTT, read-out: IC50 (50% inhibitory concentration for cell growth)): < 3.70; activity at 63.2 µM ([1]; dose 6.32 × 10^-5 Molar, read-out: Percent of Control, Uninfected): 97.2% |
| O=[N+]([O-])c1ccccc1S(=O)(=O)c1cc(Cl)cc2c1NCCC2 [Compound 47, 8-(2-nitrophenylsulfonyl)6chloro-1,2,3,4-tetrahydroquinoline] | 6.51 | – | 86.2% | 88.8% | 25.3% | – | 86.2% | 88.8% | 25.3% | – | – | – | 6.41 × 10^+1 | – | 96.1% | 92.6% | 87.1% | – | – | – | inhibition at 0.02 µM (HIV-1; Human immunodeficiency virus 1, CCRF-CEM, dose 2.00 × 10^-8 Molar, read-out: Percent of Protection): 6%; inhibition at 6.32 µM (HIV-1; Human immunodeficiency virus 1, CCRF-CEM, dose 6.32 × 10^-6 Molar, read-out: Percent of Protection): 102%; inhibition at 0.633 µM (HIV-1; Human immunodeficiency virus 1, CCRF-CEM, dose 6.33 × 10^-7 Molar, read-out: Percent of Protection): 90%; inhibition at 0.0634 µM (HIV-1; Human immunodeficiency virus 1, CCRF-CEM, read-out: Percent of Protection, dose 6.34 × 10^-8 Molar): 8.87%; inhibition at 0.00635 µM (HIV-1; Human immunodeficiency virus 1, CCRF-CEM, read-out: Percent of Protection, dose 6.35 × 10^-9 Molar): 3%; activity at 0.02 µM (HIV-1; Human immunodeficiency virus 1, Lymphocyte, dose 2.00 × 10^-8 Molar, read-out: Percent of Control, Infected): 6%; activity at 6.32 µM (HIV-1; Human immunodeficiency virus 1, Lymphocyte, dose 6.32 × 10^-6 Molar, read-out: Percent of Control, Infected): 102%; activity at 0.633 µM (HIV-1; Human immunodeficiency virus 1, Lymphocyte, dose 6.33 × 10^-7 Molar, read-out: Percent of Control, Infected): 90%; activity at 0.0634 µM (HIV-1; Human immunodeficiency virus 1, Lymphocyte, dose 6.34 × 10^-8 Molar, read-out: Percent of Control, Infected): 8.87%; activity at 0.00635 µM (HIV-1; Human immunodeficiency virus 1, Lymphocyte, dose 6.35 × 10^-9 Molar, read-out: Percent of Control, Infected): 3%; pIC50 [1, 11]: < 4.70; activity at 0.02 µM ([1]; dose 2.00 × 10^-8 Molar, read-out: Percent of Control, Uninfected): 91.2%; activity at 6.32 µM ([1]; dose 6.32 × 10^-6 Molar, read-out: Percent of Control, Uninfected): 104%; activity at 0.633 µM ([1]; dose 6.33 × 10^-7 Molar, read-out: Percent of Control, Uninfected): 86.3%; activity at 0.0634 µM ([1]; dose 6.34 × 10^-8 Molar, read-out: Percent of Control, Uninfected): 92%; activity at 0.00635 µM ([1]; dose 6.35 × 10^-9 Molar, read-out: Percent of Control, Uninfected): 91.2% |
| CN(c1ccccc1)S(=O)(=O)c1cccc([N+](=O)[O-])c1 [Compound 14, N-(3-nitrophenylsulfonyl)-N-methylaniline] | 4.37 | 5.28% | – | -6.93% | -10.9% | 17.6% | 9.75% | 6.97% | 3.54% | 16.4% | 1.34% | 3.37% | 3.34 × 10^0 | 41.5% | 83.8% | 87.2% | 93.2% | 81.3% | 87.8% | 94.8% | inhibition at 63.3 µM (HIV-1; Human immunodeficiency virus 1, CCRF-CEM, dose 6.33 × 10^-5 Molar, read-out: Percent of Protection): 78.3%; inhibition at 0.634 µM (HIV-1; Human immunodeficiency virus 1, CCRF-CEM, dose 6.34 × 10^-7 Molar, read-out: Percent of Protection): -13.4%; inhibition at 20 µM (HIV-1; Human immunodeficiency virus 1, CCRF-CEM, read-out: Percent of Protection, dose 2.00 × 10^-5 Molar): -3.74%; inhibition at 6.33 µM (HIV-1; Human immunodeficiency virus 1, CCRF-CEM, read-out: Percent of Protection, dose 6.33 × 10^-6 Molar): -3.87%; inhibition at 0.0635 µM (HIV-1; Human immunodeficiency virus 1, CCRF-CEM, read-out: Percent of Protection, dose 6.35 × 10^-8 Molar): -11.1%; activity at 63.3 µM (HIV-1; Human immunodeficiency virus 1, Lymphocyte, dose 6.33 × 10^-5 Molar, read-out: Percent of Control, Infected): 81.1%; pIC50 [1, 11]: 3.85; activity at 63.3 µM ([1]; dose 6.33 × 10^-5 Molar, read-out: Percent of Control, Uninfected): 70.2% |
